# Assay results published in patent publication US11505539B2, “Deuterated compounds as inhibitors of the BCL6 BTB domain protein-protein interaction and/or as BCL6 degraders” (Ontario Institute for Cancer Research (OICR), priority 2017, dated 2022).
# How the values were obtained:
# [1] = as reported; limits use in animal studies; cited from earlier work
# [2] = Liver microsomal metabolic stability, mouse; type: in vitro ADME; conditions: % remaining after 60 min, 1 μM compound, 0.5 mg/mL protein
# Method: (§1) (f) Microsomal Stability Assays
# (§2) Liver Microsomal Metabolic Stability
# (§3) Working stocks were initially diluted to a concentration of 40.0 μM in 0.1 M potassium phosphate buffer (pH 7.4) before addition to the reaction vials. CD-1 mouse (male) or pooled human liver microsomes (Corning Gentest) were utilized at a final concentration of 0.5 mg/mL (protein). Duplicate wells were used for each time point (0 and 60 minutes). Reactions were carried out at 37° C. in an orbital shaker at 175 rpm, and the final DMSO concentration was kept constant at 0.1%. The final volume for each reaction was 100 μL, which includes the addition of an NADPH-Regeneration Solution (NRS) mix. This NRS mix is comprised of glucose 6-phosphate dehydrogenase, NADP+, MgCl2, and glucose 6-phosphate. Upon completion of the 60 minute time point, reactions were terminated by the addition of 2-volumes (200 μL) of ice-cold, acetonitrile containing 0.5% formic acid and internal standard. Samples were then centrifuged at 4,000 rpm for 10 minutes to remove debris and precipitated protein. Approximately 150 μL of supernatant was subsequently transferred to a new 96 well microplate for LC/MS analysis:
# (§4) Narrow-window mass extraction LC-MS analysis was performed for all samples in this study using a Waters Xevo quadrupole time-of-flight (QTof) mass spectrometer to determine relative peak areas of test compounds. The percent remaining values are calculated using the following equations: % remaining=(A)/A0×100
# (§5) A is area response after incubation
# (§6) A0 is area response at initial time point
# [3] = Microsomal intrinsic clearance assay; type: in vitro ADME; conditions: pH 7.4, liver microsomes 0.5 mg/mL, species (mouse or human) not given; for microsomal CLint at 1 μM: read-out: Clint (μL/min/mg protein)
# Method: CD-1 mouse (male) or pooled human liver microsomes (Corning Gentest) were utilized at a final concentration of 0.5 mg/mL (protein). 12.5 μL of each drug solution were placed into a well of 96 well plate. Reactions were initiated by the addition of activated microsome solutions (500 μL) to drug solutions. Reactions were carried out at 37° C. in an orbital shaker at 175 rpm, and the final DMSO concentration was kept constant at 0.1%. Test compounds were incubated at a final concentration of 1 μM. 50 μL of aliquots of reaction mixtures were quenched by mixing with two parts of stop solution (internal standard containing 0.5% formic acid in acetonitrile) at appropriate time-points and mixed well. Then, solutions were centrifuged at 4000 rpm for 10 min. Supernatants were transferred to a new 96-well plate and analyzed by a Waters Q-TOF mass spectrometer coupled with an UPLC System. Recovery analysis was performed using relative peak areas and narrow window mass extraction.
# The ln(% remaining) is plotted against time and the gradient of the line determined. Elimination Constant (k)=−slope Half-life (t½)(min)=ln 2/k=0.693/k V (μL/mg)=volume of incubation (μL)/protein in the incubation (mg) Intrinsic Clearance (CLint)(μL/min/mg protein)=V·0.693/t½=V·k
# [4] = Liver microsomal metabolic stability, human; type: in vitro ADME; conditions: % remaining after 60 min, 1 μM compound, 0.5 mg/mL protein
# Method: as §1, §2, §3, §4, §5, §6
# Karpas422 cells = assay: Tumor cell growth inhibition assay; type: cell-based; conditions: Homo sapiens, KARPAS-422, 144 h; Karpas422, six days, ATPlite; read-out: GI Karpas EC50
# Method: (d) Tumor Cell Growth inhibition Assay:
# Karpas422 cells were seeded into a 96-well plate at 2,000 cells/well in 150 ul medium (Alpha-MEM containing 10% FBS, […] Normocin, and […] Gentamycin, Invitrogen). A HP D300 digital dispenser was used to dose cells with DMSO or test compounds across a 10-point range of concentrations (high dose of 5 uM), and cultures were grown in a humidified 5% CO2 incubator at 37° C. After six days, plates were removed from incubator and equilibrated to room temperature. An equal volume of ATPlite assay reagent was added to each well, and samples were processed according to manufacturer's instructions (Perkin Elmer). Luminescent signal was measured using an Envision plate reader equipped with a US-Luminescence detector.
# [5] = test system: SuDHL4-3xBCL6-TK-Luc cells; assay: Cell-based BCL6 reporter luciferase assay; conditions: Homo sapiens, SU-DHL-4, 48 h, two days
# Method: (c) Cell-Based Luciferase Assay:
# A BCL6 reporter construct containing three copies of the consensus BCL6 binding site, the TK promoter, and the firefly luciferase gene was stably expressed in SuDHL4 cells after lentivirus infection and selection with Blasticidin. SuDHL4-3×BCL6-TK-Luc cells were seeded into a Viewplate 384-well assay dish at 15,000 cells/well in 25 ul medium (Alpha-MEM high glucose containing 10% FBS, 25 mM HEPES, […] GlutaMAX, 100 ug/ml Normocin, and […] Gentamycin, Invitrogen). A HP D300 digital dispenser was used to dose cells with DMSO or test compounds across a 10-point range of concentrations (high dose of 10 uM), and cultures were grown in a humidified 5% CO2 incubator at 37° C. After two days, plates were removed from incubator and equilibrated to room temperature. An equal volume of neolite reporter gene assay reagent was added to each well, and samples were processed according to manufacturer's instructions (Perkin Elmer). Luminescent signal was measured using an Envision plate reader equipped with a US-Luminescence detector.
# BCL6 BTB domain = target: T1, BCL6 BTB domain (Homo sapiens, UniProt P41182); assay: Surface plasmon resonance (SPR) assay; type: binding; conditions: Biacore T200, single cycle kinetics
# T1 construct: BCL6 BTB domain (biotin-thrombin-BCL6 amino acids 1-129; 17 kd); Thioredoxin-His6-STag (N, cleaved yes); made in house
# Method: (b) Surface Plasmon Resonance (SPR) Assay
# SPR studies were performed using a Biacore™ T200 instrument (GE Health Sciences Inc.). The BCL6 BTB protein used in the FP assay was biotinylated using the site specific biotinylating enzyme BirA, and then cleaved with TEV protease to produce the BCL6 BTB domain (biotin-thrombin-BCL6 amino acids 1-129; 17 kd) that was use in SPR. This protein was stably captured (1000RU) to streptavidin coupled SA chips (BR-1005-31, GE Health Sciences Inc.) according to the manufacture's protocol. Compounds were dissolved in 100% DMSO at 10 mM and 2-fold serial dilutions were done in 100% DMSO. For SPR analysis the serially titrated compounds were diluted 1/20 into buffer (10 mM HEPES pH7.4, 150 mM NaCl, 0.05% Tween-20, 3 mM EDTA) giving a final concentration of 5% DMSO. The Biacore flow rate was set at 100 ul/min. For KD determinations, single cycle kinetic analysis was performed with an on time of 60 seconds, and an off time of 300 seconds. Curve fitting and KD calculations were done with the Biacore T200 Evaluation software (GE Health Sciences Inc).
# [6] = target: T2, BTB domain of BCL6 / SMRT BBD peptide (Homo sapiens, UniProt P41182); assay: BCL6-BTB - SMRT peptide inhibition fluorescence polarization (FP) screen; type: binding; conditions: 1.25 uM BCL6-BTB, 20 nM Bodipy-TMR SMRT peptide probe; lower limit of assay 1 uM
# T2 construct: Thioredoxin-His6-STag-TEV-biotinylation-thrombin-BCL6 amino acids 1-129
# Method: (a) BCL6-BTB—SMRT Peptide Inhibition Fluorescence Polarization (FP) Screen
# Compounds were dissolved in 100% DMSO at 10 mM, assayed fresh, and then stored at −20° C. for repeat studies and future work. The reaction mixture consists of 1.25 uM of the 25 kd BCL6-BTB domain (Thioredoxin-His6-STag-TEV-biotinylation-thrombin-BCL6 amino acids 1-129) plus 20 nM of the peptide probe Ac-GSLVATVKEAGRSIHEIPA (SEQ ID NO: 1) with 16 amino acid peptide from the SMRT BBD (1414-1429) with a Bodipy-TMR fluorescent label on the lysine. […] 20 ul of this assay mixture was added to each well of the 384 well plates with the exception of the control wells that contained no protein (for setting the minimum FP value). Compounds were directly sprayed using an HP D300 Digital Dispenser from 10 mM DMSO stocks onto black 384 well plates (greiner bio-one #781900) in a concentration range from 1 uM to 500 uM (10 points in duplicate). The assay was equilibrated for 1 hour prior to reading the FP values (Ex 540 nm/Em 580 nm) with a Perkin Elmer Envision plate reader. The results were curve fitted and IC50 values were calculated using the BioAssay software from CambridgeSoft.
"Mouse Liver Microsomes (MLM, % @ 1 h) [2] [%]",half-life at 1 μM [3] [min],microsomal CLint at 1 μM [3] [µL/min/mg],"Human Liver Microsomes (HLM, % @ 1 h) [4] [%]",EC50 (Karpas422 cells) [nM],IC50 [5] [nM],Kd (BCL6 BTB domain) [nM],IC50 [6] [nM],Structure (SMILES),bioavailability [1]
13,12,112,25,–,–,–,–,"CNC(=O)COc1cc2cc(Nc3nc(N4C[C@H](C)C[C@H](C)C4)ncc3Cl)ccc2n(C)c1=O [BI-3802, reference compound]",poor bioavailability
8,29,48,26,14.1,46.6,4.56,≤ 1000,"[2H]C([2H])([2H])NC(=O)C([2H])([2H])Oc1cc2cc(Nc3nc(N4C[C@H](C)C[C@H](C)C4)ncc3Cl)ccc2n(C)c1=O [Example Ia, 2-((6-((5-chloro-2-((3R,5S)-3,5-dimethylpiperidin-1-yl)pyrimidin-4-yl)amino)-1-methyl-2-oxo-1,2-dihydroquinolin-3-yl)oxy)-N-(methyl-d3)acetamide-2,2-d2]",–
91,82,17,100,5.04,7.57,4.53,≤ 900,[2H]C([2H])([2H])NC(=O)C([2H])([2H])Oc1cc2cc(Nc3nc(N4C[C@@H](C)C(F)(F)[C@@H](C)C4)ncc3Cl)ccc2n(C)c1=O [Ib],–
